Experiment: Stability tests of Idarubicin HCl, 1% w/v aqueous solution, pH varied with NH4OH or HCl or dissolved as is (aglycone, bis-anhydro)
Assay type: physicochemical
Conditions: for % aglycone / % bis-anhydro: 1% w/v aqueous solution
Procedure: Starting product was idarubicin hydrochloride, 1% w/v aqueous solution, the analysis of which is shown in the data reported at t=0. 3% mol of NH4OH with respect to idarubicin hydrochloride was added to the solution at t=0 and the solution was incubated at 20° C. for the indicated time. The results in table 1 show the expected rise over time of the bis-anhydro degradation product at high pH (6.69), with very little increase of aglycone.
Starting product was idarubicin hydrochloride, 1% w/v aqueous solution, the analysis of which is shown in the data reported at t=0. 1% mol of NH4OH with respect to idarubicin hydrochloride was added to the solution at t=0 and the solution was incubated at 20° C. for the indicated time.
Starting product was idarubicin hydrochloride, 1% w/v aqueous solution, the analysis of which is shown in the data reported at t=0. 3% mol of NH4OH with respect to idarubicin hydrochloride was added to the solution at t=0 and the solution was incubated at 4° C. for the indicated time.
Starting product was idarubicin hydrochloride, 1% w/v aqueous solution, the analysis of which is shown in the data reported at t=0.1% mol of NH4OH with respect to idarubicin hydrochloride was added to the solution at t=0 and the solution was incubated at 4° C. for the indicated time.
Starting product was idarubicin hydrochloride, 1% w/v aqueous solution, the analysis of which is shown in the data reported at t=0. The solution was incubated for the indicated time at 20° C. without additional chemicals. The results in table 5 show the expected rise in bis-anhydro content.
Starting product was idarubicin hydrochloride, 1% w/v aqueous solution, the analysis of which is shown in the data reported at t=0. The solution was incubated for the indicated time at 4° C. without the addition of additional chemicals.The results in table 6 show a rise in bis-anhydro content, even at 4° C.
Starting product was idarubicin hydrochloride, 1% w/v aqueous solution. At t=0, the pH of the solution was lowered by the addition of 1% mol of HCl with respect to idarubicin hydrochloride. The solution was incubated for the indicated time at 20° C.
Starting product was idarubicin hydrochloride, 1% w/v aqueous solution. At t=0, the pH of the solution was lowered by the addition of 1% mol of HCl with respect to idarubicin hydrochloride. The solution was incubated for the indicated time at 4° C.
Starting product was idarubicin hydrochloride, 1% w/v aqueous solution. At t=0, the pH of the solution was lowered to 3.6 by the addition of 1.3% mol of HCl with respect to idarubicin hydrochloride. The solution was then incubated for the indicated time at 20° C.
Starting product was idarubicin hydrochloride, 1% w/v aqueous solution. At t=0, the pH of the solution was lowered to 3.55 by the addition of 1.5% mol of HCl with respect to idarubicin hydrochloride. The solution was then incubated for the indicated time at 20° C.
Starting product was idarubicin hydrochloride, 1% w/v aqueous solution. At t=0, the pH of the solution was lowered to 3.50 by the addition of 1.7% mol of HCl with respect to idarubicin hydrochloride.
Starting product was idarubicin hydrochloride, 1% w/v aqueous solution. At t=0, the pH of the solution was lowered to 3.03 by the addition of 6.5% mol of HCl with respect to idarubicin hydrochloride.
Starting product was idarubicin hydrochloride, 1% w/v aqueous solution. At t=0, the pH of the solution was lowered to 2.18 by the addition of 48% mol of HCl with respect to idarubicin hydrochloride.

[1] = HCl 1% mol, pH 3.91, 4° C., 169 hr
[2] = HCl 1% mol, pH 3.91, 4° C., 407 hr
[3] = HCl 1% mol, pH 3.91, 20° C., 28 hr
[4] = HCl 1% mol, pH 3.91, 20° C., 168 hr
[5] = HCl 1% mol, pH 3.91, 20° C., 406 hr
[6] = HCl to pH = 2.18 (extra HCl = 48% mol), 4° C., 30 hr
[7] = HCl to pH = 2.18 (extra HCl = 48% mol), 4° C., 119 hr
[8] = HCl to pH = 2.18 (extra HCl = 48% mol), 20° C., 27 hr
[9] = HCl to pH = 2.18 (extra HCl = 48% mol), 20° C., 118 hr
[10] = HCl to pH = 3.03 (extra HCl = 6.5% mol), 20° C., 366 hr
[11] = HCl to pH = 3.50 (extra HCl = 1.7% mol), 20° C., 366 hr
[12] = HCl to pH = 3.55 (extra HCl = 1.5% mol), 20° C., 366 hr
[13] = HCl to pH = 3.60 (extra HCl = 1.3% mol), 20° C., 366 hr
[14] = NH3 1% mol, pH 6.56, 4° C., 34 hr
[15] = NH3 1% mol, pH 6.56, 4° C., 56 hr
[16] = NH3 1% mol, pH 6.56, 4° C., 149 hr
[17] = NH3 1% mol, pH 6.56, 20° C., 29 hr
[18] = NH3 1% mol, pH 6.56, 20° C., 54 hr
[19] = NH3 1% mol, pH 6.56, 20° C., 146 hr
[20] = NH3 3% mol, pH 6.69, 4° C., 28 hr
[21] = NH3 3% mol, pH 6.69, 4° C., 129 hr
[22] = NH3 3% mol, pH 6.69, 20° C., 25 hr
[23] = NH3 3% mol, pH 6.69, 20° C., 122 hr
[24] = dissolved as is, pH 5.66, 4° C., 31 hr
[25] = dissolved as is, pH 5.66, 4° C., 154 hr
[26] = dissolved as is, pH 5.66, 20° C., 26 hr
[27] = dissolved as is, pH 5.66, 20° C., 57 hr
[28] = dissolved as is, pH 5.66, 20° C., 148 hr

## CC(=O)[C@]1(O)Cc2c(O)c3c(c(O)c2[C@@H](O[C@H]2C[C@@H](N)[C@H](O)C(C)O2)C1)C(=O)c1ccccc1C3=O.Cl (stereo partly shown) [Idarubicin HCl, Idarubicin hydrochloride]
HCl 1% mol, pH 3.91, 4° C., 33 hr
  % aglycone: 0.57%
[1]
  % aglycone: 0.58%
  % bis-anhydro: 0.06%
[2]
  % aglycone: 0.58%
  % bis-anhydro: 0.05%
HCl 1% mol, pH 3.91, 4° C., t = 0
  % aglycone: 0.59%
[3]
  % aglycone: 0.57%
  % bis-anhydro: 0.04%
[4]
  % aglycone: 0.58%
  % bis-anhydro: 0.09%
[5]
  % aglycone: 0.59%
  % bis-anhydro: 0.25%
HCl 1% mol, pH 3.91, 20° C., t = 0
  % aglycone: 0.59%
[6]
  % aglycone: 0.61%
  % bis-anhydro: 0.06%
[7]
  % aglycone: 0.63%
  % bis-anhydro: 0.06%
HCl to pH = 2.18 (extra HCl = 48% mol), 4° C., t = 0
  % aglycone: 0.59%
[8]
  % aglycone: 0.72%
  % bis-anhydro: 0.06%
[9]
  % aglycone: 1.03%
  % bis-anhydro: 0.06%
HCl to pH = 2.18 (extra HCl = 48% mol), 20° C., t = 0
  % aglycone: 0.59%
HCl to pH = 3.03 (extra HCl = 6.5% mol), 4° C., 29 hr
  % aglycone: 0.61%
HCl to pH = 3.03 (extra HCl = 6.5% mol), 4° C., 80 hr
  % aglycone: 0.61%
HCl to pH = 3.03 (extra HCl = 6.5% mol), 4° C., 364 hr
  % aglycone: 0.61%
HCl to pH = 3.03 (extra HCl = 6.5% mol), 4° C., t = 0
  % aglycone: 0.59%
HCl to pH = 3.03 (extra HCl = 6.5% mol), 20° C., 22 hr
  % aglycone: 0.62%
HCl to pH = 3.03 (extra HCl = 6.5% mol), 20° C., 76 hr
  % aglycone: 0.63%
HCl to pH = 3.03 (extra HCl = 6.5% mol), 20° C., 124 hr
  % aglycone: 0.65%
[10]
  % aglycone: 0.77%
  % bis-anhydro: 0.04%
HCl to pH = 3.03 (extra HCl = 6.5% mol), 20° C., t = 0
  % aglycone: 0.59%
HCl to pH = 3.50 (extra HCl = 1.7% mol), 20° C., 22 hr
  % aglycone: 0.59%
HCl to pH = 3.50 (extra HCl = 1.7% mol), 20° C., 76 hr
  % aglycone: 0.59%
HCl to pH = 3.50 (extra HCl = 1.7% mol), 20° C., 124 hr
  % aglycone: 0.60%
[11]
  % aglycone: 0.61%
  % bis-anhydro: 0.01%
HCl to pH = 3.50 (extra HCl = 1.7% mol), 20° C., t = 0
  % aglycone: 0.59%
HCl to pH = 3.55 (extra HCl = 1.5% mol), 20° C., 22 hr
  % aglycone: 0.59%
HCl to pH = 3.55 (extra HCl = 1.5% mol), 20° C., 76 hr
  % aglycone: 0.59%
HCl to pH = 3.55 (extra HCl = 1.5% mol), 20° C., 124 hr
  % aglycone: 0.60%
[12]
  % aglycone: 0.61%
  % bis-anhydro: 0.01%
HCl to pH = 3.55 (extra HCl = 1.5% mol), 20° C., t = 0
  % aglycone: 0.59%
HCl to pH = 3.60 (extra HCl = 1.3% mol), 20° C., 22 hr
  % aglycone: 0.59%
HCl to pH = 3.60 (extra HCl = 1.3% mol), 20° C., 76 hr
  % aglycone: 0.59%
HCl to pH = 3.60 (extra HCl = 1.3% mol), 20° C., 124 hr
  % aglycone: 0.60%
[13]
  % aglycone: 0.61%
  % bis-anhydro: 0.01%
HCl to pH = 3.60 (extra HCl = 1.3% mol), 20° C., t = 0
  % aglycone: 0.59%
[14]
  % aglycone: 0.58%
  % bis-anhydro: 0.50%
[15]
  % aglycone: 0.58%
  % bis-anhydro: 0.74%
[16]
  % aglycone: 0.58%
  % bis-anhydro: 1.33%
NH3 1% mol, pH 6.56, 4° C., t = 0
  % aglycone: 0.59%
[17]
  % aglycone: 0.58%
  % bis-anhydro: 2.37%
[18]
  % aglycone: 0.58%
  % bis-anhydro: 3.56%
[19]
  % aglycone: 0.59%
  % bis-anhydro: 8.03%
NH3 1% mol, pH 6.56, 20° C., t = 0
  % aglycone: 0.59%
[20]
  % aglycone: 0.59%
  % bis-anhydro: 0.63%
[21]
  % aglycone: 0.59%
  % bis-anhydro: 1.87%
NH3 3% mol, pH 6.69, 4° C., t = 0
  % aglycone: 0.59%
[22]
  % aglycone: 0.60%
  % bis-anhydro: 3.00%
[23]
  % aglycone: 0.61%
  % bis-anhydro: 13.46%
NH3 3% mol, pH 6.69, 20° C., t = 0
  % aglycone: 0.59%
[24]
  % aglycone: 0.57%
  % bis-anhydro: 0.11%
[25]
  % aglycone: 0.57%
  % bis-anhydro: 0.30%
Dissolved as is, pH 5.66, 4° C., t = 0
  % aglycone: 0.59%
[26]
  % aglycone: 0.57%
  % bis-anhydro: 0.41%
[27]
  % aglycone: 0.58%
  % bis-anhydro: 0.84%
[28]
  % aglycone: 0.58%
  % bis-anhydro: 1.20%
Dissolved as is, pH 5.66, 20° C., t = 0
  % aglycone: 0.59%
Lowest amount of aglycon and bis-anhydro impurities, constant over time even at 20° C.
  pH at which found to be most stable: 3.5

Reference: US20070004653A1, “Stable lyophilized anthracycline glycosides” (priority 2005, published 2007)
